Molecules are shown by their SMILES.

T1 sequence (O14842 whole entry): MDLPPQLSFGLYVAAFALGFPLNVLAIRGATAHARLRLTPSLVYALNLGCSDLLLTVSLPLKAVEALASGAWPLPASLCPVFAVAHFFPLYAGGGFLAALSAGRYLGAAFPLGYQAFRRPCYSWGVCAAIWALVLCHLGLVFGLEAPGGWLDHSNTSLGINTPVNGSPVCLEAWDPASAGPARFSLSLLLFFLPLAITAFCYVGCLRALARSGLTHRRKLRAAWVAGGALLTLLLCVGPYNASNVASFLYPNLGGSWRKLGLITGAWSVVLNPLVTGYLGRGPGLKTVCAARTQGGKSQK

The first experiment has as its target T1, human GPR40 (Homo sapiens, UniProt O14842). Briefly: FLIPR assay (agonist-induced calcium mobilization). Particulars: CHONFAT, read-out: Human FLIPR EC50, nM or % activation (% activation values). Background: Calcium assays in cells follow changes in intracellular calcium, usually with a dye or a luminescent sensor.
Protocol: Human and mouse GPR40 stable cell-lines were generated in CHO cells stably expressing NFAT BLA (Beta-lactamase). […] The expression plasmids were transfected using lipofectamine (Life Technologies) following manufacturer's instructions. Stable cell-lines were generated following drug selection.
FLIPR (Fluorimetric Imaging Plate Reader, Molecular Devices) assays were performed to measure agonist-induced calcium mobilization of the stable clones. For the FLIPR assay, one day before assay, GPR40/CHO NFAT BLA cells were seeded into black-wall-clear-bottom 384-well plates (Costar) at 1.4×10e4 cells/20 μL medium/well. The cells were incubated with 20 μl/well of the assay buffer (HBSS, 0.1% BSA, 20 mM HEPES, 2.5 mM probenecid, pH 7.4) containing 8 μM fluo-4, AM, 0.08% pluronic acid at room temperature for 100 minutes. Fluorescence output was measured using FLIPR. Compounds were dissolved in DMSO and diluted to desired concentrations with assay buffer.
For `COc1cccc(C(CC(=O)O)c2ccc3c(c2)CCC(c2cccc(-c4c(C)cccc4C)c2)O3)c1` (stereo not drawn) [Example 46], the activation at 10 µM is 41%.

Consider `Cc1cccc(C)c1-c1cccc(C2CC(=O)c3cc(CCC(=O)O)ccc3O2)c1` (racemic) [Example 7, 3-(2-(2′,6′-dimethyl-[1,1′-biphenyl]-3-yl)-4-oxochroman-6-yl)propanoic acid], for which the activation at 10 µM was found to be 70%.

Turning to `COc1ccccc1C(CC(=O)O)c1ccc2c(c1)CCC(c1cccc(-c3c(C)cccc3C)c1)O2` (stereo not drawn) [Example 45], the activation at 10 µM amounted to 12.5%.

On to `COc1ccc(C(CC(=O)O)c2ccc3c(c2)CCC(c2cccc(-c4c(C)cccc4C)c2)O3)cc1` (stereo not drawn) [Example 47], for which the activation at 10 µM worked out at 61%.

`O=C(O)CCc1ccc2c(c1)CCC(c1ccccc1)O2` (racemic) [Example 2]: the activation at 10 µM stood at 79%.

Staying with this experiment, now noted: Human FLIPR EC50, nM or % activation (EC50 values), GPR40/CHO NFAT BLA cells.
Consider `Cc1ccccc1-c1cc(F)c(C2CCc3cc4c(cc3O2)OC[C@H]4CC(=O)O)cc1-c1ccccc1C` (mixture of isomers) [Example 59], for which the EC50 amounted to 51 nM.

As for `CC#CC(CC(=O)O)c1ccc2c(c1)OC(c1ccc(-c3c(C)cccc3C)cc1)CC2` (single isomer, unassigned) [Example 54], the EC50 came to 1090 nM.

In the case of `CC#C[C@@H](CC(=O)O)c1ccc2c(c1)CCC(c1cc(-c3ccc(OC)nc3C)ccc1F)O2` (single isomer, unassigned) [Example 37], the EC50 was found to be 38 nM.

Consider `Cc1cccc(C)c1-c1ccc(F)c(C2CCc3cc(CCC(=O)O)ccc3O2)n1` (racemic) [Example 3], for which the EC50 was determined as 292 nM.

As for `CC#C[C@@H](CC(=O)O)c1ccc2c(c1)CCC(c1cc(-c3cccnc3C(F)(F)F)ccc1F)O2` (single isomer, unassigned) [Example 35], the EC50 came to 37 nM.

Turning to `Cc1cccc(C)c1-c1cccc(C2CC(F)(F)c3cc(CCC(=O)O)ccc3O2)c1` (racemic) [Example 8, 3-(2-(2′,6′-dimethyl-[1,1′-biphenyl]-3-yl)-4,4-difluorochroman-6-yl)propanoic acid], the EC50 is 349 nM.

For the molecule `CC#C[C@@H](CC(=O)O)c1ccc2c(c1)CCC(c1cc(-c3c(C)cccc3C)ccc1F)O2` (single isomer, unassigned) [Example 21], the EC50 amounted to 26 nM.

For the molecule `CC#C[C@@H](CC(=O)O)c1ccc2c(c1)CCC(c1cccc(-c3c(C)noc3C)c1)O2` (single isomer, unassigned) [Example 39], the EC50 was found to be 113 nM.

Regarding `CC#C[C@@H](CC(=O)O)c1ccc2c(c1)CCC(c1ccc(OCc3ccccc3)c(-c3c(C)cccc3C)c1)O2` (mixture of isomers) [Example 52], the EC50 came to 17 nM.

On to `COc1ccc(F)c(-c2ccc(C3CCc4ccc(CCC(=O)O)cc4O3)cc2C2=CCCC2(C)C)c1` (racemic) [Example 48], for which the EC50 stood at 12 nM.

As to `CC#CC(CC(=O)O)c1ccc2c(c1)CCC(c1cccc(-c3cccnc3C)c1)O2` (mixture of isomers) [Example 26], the EC50 was 244 nM.

Regarding `CC#C[C@@H](CC(=O)O)c1ccc2c(c1)CCC(c1cc(-c3cc(OC)ccc3F)ccc1F)O2` (mixture of isomers) [Example 30], the EC50 turned out to be 128 nM.

`CC#C[C@@H](CC(=O)O)c1ccc2c(c1)CCC(c1cc(C3=CCCC3(C)C)ccc1F)O2` (mixture of isomers) [Example 33]: the EC50 turned out to be 114 nM.

In the case of `Cc1ccccc1-c1cccc(C2CCc3cc4c(cc3O2)OC[C@H]4CC(=O)O)c1F` (mixture of isomers) [Example 58], the EC50 came to 1040 nM.

As to `Cc1cccc(C)c1-c1cccc(C2CCc3cc(-c4cc(=O)[nH][s+]4[O-])ccc3O2)c1` [Example 9, (1R)-5-(2-(2′,6′-dimethyl-[1,1′-biphenyl]-3-yl)chroman-6-yl)isothiazol-3(2H)-one 1-oxide], the EC50 turned out to be 1920 nM.

For the molecule `CC#C[C@@H](CC(=O)O)c1ccc2c(c1)CCC(c1cccc(-c3c(C)noc3C)c1)O2` (single isomer, unassigned) [Example 40], the EC50 is 255 nM.

For the molecule `CC#C[C@@H](CC(=O)O)c1ccc2c(c1)CCC(c1ccc(-c3cc(OC)ccc3F)cc1)O2` (mixture of isomers) [Example 51], the EC50 turned out to be 105 nM.

With `Cc1cccc(C)c1-c1cccc(C2CCc3cc4c(cc3O2)OC[C@H]4CC(=O)O)c1` (stereo partly drawn) [Example 55, 2-((3S)-7-(2′,6′-dimethyl-[1,1′-biphenyl]-3-yl)-3,5,6,7-tetrahydro-2H-furo[3,2-g]chromen-3-yl)acetic acid], the EC50 came to 247 nM.

For the molecule `CC#CC(CC(=O)O)c1ccc2c(c1)CCC(c1nc(-c3cccnc3C(F)(F)F)ccc1F)O2` (mixture of isomers) [Example 20], the EC50 amounted to 172 nM.

With `CC#CC(CC(=O)O)c1ccc2c(c1)OC(c1ccc(-c3c(C)cccc3C)cc1)CC2` (single isomer, unassigned) [Example 53], the EC50 is 2140 nM.

With `Cc1cccc(C)c1-c1cccc(C2CCc3cc(C(CC(=O)O)C4CC4)ccc3O2)c1` (mixture of isomers) [Example 43], the EC50 was found to be 2040 nM.

Consider `Cc1cccc(C)c1-c1cccc(C2CCc3cc(C(CC(=O)O)c4ccccn4)ccc3O2)c1` (mixture of isomers) [Example 34], for which the EC50 came out at 734 nM.

Take `Cc1ccccc1-c1ccc(C2CCc3cc4c(cc3O2)OC[C@H]4CC(=O)O)c(F)c1` (stereo partly drawn) [Example 57]: the EC50 came to 1050 nM.

Take `CC#C[C@@H](CC(=O)O)c1ccc2c(c1)CCC(c1cc(-c3ccc(C(F)(F)F)cc3)ccc1F)O2` (mixture of isomers) [Example 29]: the EC50 is 162 nM.

As for `Cc1cccc(C)c1-c1cccc(C2CCc3nc(CCC(=O)O)ccc3O2)c1` (stereo not drawn) [Example 10, 3-(2-(2′,6′-dimethyl-[1,1′-biphenyl]-3-yl)-3,4-dihydro-2H-pyrano[3,2-b]pyridin-6-yl)propanoic acid], the EC50 was determined as 1310 nM.

With `CC#C[C@@H](CC(=O)O)c1ccc2c(c1)CCC(c1cc(-c3cccnc3C(F)(F)F)ccc1F)O2` (single isomer, unassigned) [Example 36], the EC50 is 178 nM.

For `CC#CC(CC(=O)O)c1ccc2c(c1)CCC(c1ccc(C(F)(F)F)c(Cl)c1)O2` (mixture of isomers) [Example 18], the EC50 worked out at 1540 nM.

The target of a further experiment is T1, human GPR40. Kind of experiment: Inositol Phosphate Turnover (IP1) Assay 1. Particulars: Human IP1 Assay 1, EC50, nM, HEK cells stably expressing human GPR40.
Protocol: The assay is performed in 96-well format. HEK cells stably expressing human GPR40 are plated to be 60-80% confluent within 72 h. After 72 h, the plates are aspirated and the cells washed with inositol-free DMEM (ICN). The wash media is replaced with 150 μL of 3H-inositol labeling media (inositol-free media containing 0.4% human albumin or 0.4% mouse albumin, 1× pen/strep antibiotics, glutamine, 25 mM HEPES to which is added 3H-myo-inositol NEN #NET114A 1 mCi/mL, 25 Ci/mmol diluted 1:150 in loading media with a final specific radioactivity of 1 μCi/150 μL). Alternatively, the human and mouse albumin can be added after the overnight labeling step before the addition of LiCl.
The assay is typically run the next day after 18 h labeling. On the day of the assay, 5 μL of 300 mM LiCl is added to all wells and incubated at 37 degrees for 20 min. 0.75 μL of 200× compounds are added and incubated with the cells for 60 min at 37 degrees. The media is then aspirated off and the assay terminated with the addition of 60 μL 10 mM formic acid. The cells are lysed for 60 min at room temperature. 15-30 μL of lysate is mixed with 70 μL/1 mg YSi SPA beads (Amersham) in clear bottom Isoplates. The plates are shaken for 2 h at room temperature. Beads are allowed to settle and the plates are counted in the Wallac Microbeta.
`Cc1ccccc1-c1cc(F)c(C2CCc3cc4c(cc3O2)OC[C@H]4CC(=O)O)cc1-c1ccccc1C` (mixture of isomers) [Example 59] yielded an EC50 of 2520 nM.

Consider `CC#C[C@@H](CC(=O)O)c1ccc2c(c1)CCC(c1cc(-c3ccc(OC)nc3C)ccc1F)O2` (single isomer, unassigned) [Example 37], for which the EC50 was 47 nM.

Take `Cc1cccc(C)c1-c1ccc(F)c(C2CCc3cc(CCC(=O)O)ccc3O2)n1` (racemic) [Example 3]: the EC50 turned out to be 3630 nM.

For `CC#C[C@@H](CC(=O)O)c1ccc2c(c1)CCC(c1cc(-c3cccnc3C(F)(F)F)ccc1F)O2` (single isomer, unassigned) [Example 35], the EC50 came to 31 nM.

For the molecule `CC#C[C@@H](CC(=O)O)c1ccc2c(c1)CCC(c1cc(-c3c(C)cccc3C)ccc1F)O2` (single isomer, unassigned) [Example 21], the EC50 is 83 nM.

As to `CC#C[C@@H](CC(=O)O)c1ccc2c(c1)CCC(c1ccc(OCc3ccccc3)c(-c3c(C)cccc3C)c1)O2` (mixture of isomers) [Example 52], the EC50 was found to be 248 nM.

Take `COc1ccc(F)c(-c2ccc(C3CCc4ccc(CCC(=O)O)cc4O3)cc2C2=CCCC2(C)C)c1` (racemic) [Example 48]: the EC50 was 1020 nM.

The molecule `CC#C[C@@H](CC(=O)O)c1ccc2c(c1)CCC(c1cc(C3=CCCC3(C)C)ccc1F)O2` (mixture of isomers) [Example 33] came in with an EC50 of 1300 nM.

Regarding `CC#C[C@@H](CC(=O)O)c1ccc2c(c1)CCC(c1ccc(-c3cc(OC)ccc3F)cc1)O2` (mixture of isomers) [Example 51], the EC50 amounted to 1200 nM.

The next experiment addresses T1, human GPR40. Kind of experiment: Inositol Phosphate Turnover (IP1) Assay 2. As to conditions: HEK cells stably expressing human GPR40, Table 2, read-out: Human IP1. On the set-up: expressed in transfected cells. The class given is cell-based. Summed up: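 HEK cells stably expressing human GPR40 (aequorin reporter background) seeded and grown 16 h at 37 °C, then treated with compound in IP-One stimulation buffer for 60 min at 37 °C. IP1 accumulation detected by HTRF/FRET after 60 min with detection reagents in the dark.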
Take `COc1ccc(F)c(-c2ccc(C3CCc4ccc([C@H](C5CC5)[C@H](C)C(=O)O)cc4O3)cc2OC(F)(F)F)c1` (mixture of isomers) [Example 100]: the EC50 stood at 32 nM.

Regarding `COc1ccc(F)c(-c2ccc(C3CCc4ccc(C(C5CCC5)C(C)C(=O)O)cc4O3)cc2)c1` (single isomer, unassigned) [Example 157], the EC50 was determined as 90 nM.

On to `COc1cc(-c2ccc(C3CCc4ccc([C@H](C5CC5)[C@H](C)C(=O)O)cc4O3)nc2)c(F)cn1` (single isomer, unassigned) [Example 112a], for which the EC50 was determined as 0.17 nM.

In the case of `COc1cc(-c2ccc(C3CCc4ccc([C@H](C5CC5)[C@H](C)C(=O)O)cc4O3)nc2)c(F)cn1` (single isomer, unassigned) [Example 112b], the EC50 stood at 0.92 nM.

As to `COc1ccc(F)c(-c2ccc(C3CCc4ccc([C@H](C5CC5)[C@H](C)C(=O)O)cc4O3)nc2C(OC)C(C)(C)C)c1` (single isomer, unassigned) [Example 135b], the EC50 worked out at 21 nM.

Regarding `COc1ccc(F)c(-c2ccc(C3CCc4ccc([C@@H](CC(=O)O)C5CC5)cc4O3)cc2)c1` (single isomer, unassigned) [Example 61], the EC50 worked out at 36 nM.

Take `COc1cncc(-c2ccc(C3CCc4ccc([C@@H](CC(=O)O)C5CC5)cc4O3)c(F)c2)n1` (mixture of isomers) [Example 93]: the EC50 was determined as 488 nM.

As to `COc1cc(-c2cnc(C3CCc4ccc([C@H](C5CC5)[C@H](C)C(=O)O)cc4O3)c(F)c2)ccn1` (mixture of isomers) [Example 121], the EC50 worked out at 11 nM.

As for `COc1ccc(F)c(-c2ccc(C3CCc4ccc(C(C)CC(=O)O)cc4O3)cc2)c1` (single isomer, unassigned) [Example 141], the EC50 amounted to 354 nM.

`COc1ccc(F)c(-c2ccc(C3CCc4ccc(C(C)CC(=O)O)cc4O3)cc2)c1` (single isomer, unassigned) [Example 139]: the EC50 was determined as 116 nM.

In the case of `O=C(O)C[C@H](c1ccc2c(c1)OC(c1ccc(-c3cc(OC(F)(F)F)ccc3F)cc1)CC2)C1CC1` (stereo partly drawn) [Example 76], the EC50 came to 650 nM.

Take `COc1ccc(F)c(-c2ccc(C3CCc4ccc(C(C5CCC5)C(C)C(=O)O)cc4O3)cc2)c1` (single isomer, unassigned) [Example 158]: the EC50 came out at 132 nM.

The same experiment, now with this note: HEK cells stably expressing human GPR40, Table 3, read-out: Human IP1 activity.
With `COc1ccc(F)c(-c2ccc(C3COc4ccc([C@H](C5CC5)[C@H](C)C(=O)O)cc4O3)nc2)c1` (single isomer, unassigned) [Example 161], the EC50 stood at 2.2 nM.

In the case of `COc1ccc(F)c(-c2ccc(C3COc4ccc([C@@H](CC(=O)O)C5CC5)cc4O3)cc2)c1` (single isomer, unassigned) [Example 168], the EC50 was determined as 120 nM.

On to `COc1ccc(F)c(-c2ccc([C@H]3COc4ccc([C@H](C5CC5)[C@@H](C)C(=O)O)cc4O3)cc2Cl)c1` [Example 183], for which the EC50 was found to be 99.6 nM.

Turning to `COc1ccc(F)c(-c2ccc([C@@H]3COc4ccc([C@H](C5CC5)[C@H](C)C(=O)O)cc4O3)cc2C(OC)C(C)(C)C)c1` (stereo partly drawn) [Example 163], the EC50 turned out to be 2.1 nM.

(Values after US9840512B2, “Antidiabetic bicyclic compounds” (Merck Sharp & Dohme Corp., priority 2013, dated 2017).)
